# Measured values as given in US20230365563A1, “QUINAZOLINE COMPOUND AND APPLICATION THEREOF” (SHANGHAI PHARMACEUTICALS HOLDING CO., LTD., priority 2020, published 2023).
# Where a name gives a salt, the structure may show the parent alone.
# Biological target: T1, KRAS-G12D and SOS1 (Homo sapiens, UniProt P01116, G12D)
# T1 construct: purchased
# Experiment: Inhibition of KRAS-G12D/SOS1 binding (Cisbio binding kit, 665/615 ratio), Effect Embodiment A
# Settings: read-out: GTP-KRAS-G12D:SOS1 IC50
# Procedure: Similarly, the first dilution point of the compound to be tested was its storage solution, and the solution was 3-fold diluted, with 11+0 points of dilution. Echo was used to transfer 0.2 μL gradient diluted solution of the compounds into a 384-well plate, with 2 duplicated wells for each compound, and the final concentration of DMSO was 1%. The solution was centrifuged for 1 min at 1000 rpm/min.
# IC50 of the compounds was fitted by Graphpad Prism 8 nonlinear regression equation: […]
# The IC50 (half inhibitory concentration) of the compound was obtained by using the following nonlinear fitting formula: […]
# T1 sequence (P01116 1-188 isoform P01116-2 G12D): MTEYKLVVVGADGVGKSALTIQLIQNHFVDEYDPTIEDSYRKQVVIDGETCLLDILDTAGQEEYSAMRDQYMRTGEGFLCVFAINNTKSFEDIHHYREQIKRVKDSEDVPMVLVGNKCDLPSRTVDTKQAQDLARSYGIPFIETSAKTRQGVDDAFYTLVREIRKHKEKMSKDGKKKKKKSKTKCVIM
row,Structure (SMILES),IC50 [µM]
1,"CN(C)C1CN(c2nc(N[C@@H]3C[C@H]4CCC[C@@H](C3)N4)c3cc(Cl)c(-c4cc(O)cc5ccccc45)c(F)c3n2)C1 (single isomer, unassigned) [Compound 32, 4-((S or R)-4-(((1R,3S,5S)-9-azabicyclo[3.3.1]nonan-3-yl)amino)-6-chloro-2-(3-(dimethylamino)azetidin-1-yl)-8-fluoroquinazolin-7-yl)naphthalen-2-ol]",187
2,"CN1CCC[C@H]1COc1nc(N2CC3CCC(C2)N3)c2cc(Cl)c(-c3cc(O)cc4ccccc34)c(F)c2n1 (single isomer, unassigned) [Compound 39b, (R or S)-4-(4-((1R,5S)-3,8-diazabicyclo[3.2.1]octan-3-yl)-6-chloro-8-fluoro-2-((S)-1-methylpyrrolidin-2-yl)methoxy)quinazolin-7-yl)naphthalen-2-ol]",17.7
3,"CCCN(C)CCCOc1nc(N2CC3CCC(C2)N3)c2cc(Cl)c(-c3cc(O)cc4ccccc34)c(F)c2n1 (single isomer, unassigned) [Compound 51b, 4-((R or S)-4-((1R,5S)-3,8-diazabicyclo[3.2.1]octan-3-yl)-6-chloro-8-fluoro-2-(3-(methyl(propyl)amino)propoxy)quinazolin-7-yl)naphthalen-2-ol]",50.8
4,"CN1CCN(c2nc(N3CC4CCC(C3)N4)c3cc(Cl)c(-c4cc(O)cc5ccccc45)c(F)c3n2)CC1 (single isomer, unassigned) [Compound 52b, 4-((R or S)-4-((1R,5S)-3,8-diazabicyclo[3.2.1]octan-3-yl)-6-chloro-8-fluoro-2-(4-methylpiperazin-1-yl)quinazolin-7-yl)naphthalen-2-ol]",73.9
5,"Oc1cc(-c2c(Cl)cc3c(N4CC5CCC(C4)N5)nc(OCCCN4CCOCC4)nc3c2F)c2ccccc2c1 (single isomer, unassigned) [Compound 54b, 4-((R or S)-4-((1R,5S)-3,8-diazabicyclo[3.2.1]octan-3-yl)-6-chloro-8-fluoro-2-(3-morpholinopropoxy)quinazolin-7-yl)naphthalen-2-ol dihydrochloride]",22.1
6,"CN(C)CCCCOc1nc(N2CC3CCC(C2)N3)c2cc(Cl)c(-c3cc(O)cc4ccccc34)c(F)c2n1 (single isomer, unassigned) [Compound 60b, 4-((R or S)-4-((1R,5S)-3,8-diazabicyclo[3.2.1]octan-3-yl)-6-chloro-2-(4-(dimethylamino)butoxy)-8-fluoroquinazolin-7-yl)naphthalen-2-ol]",72.4
7,"CN(C)C1CN(c2nc(N3CC4CCC(C3)N4)c3cc(Cl)c(-c4cc(O)cc5cccc(F)c45)c(F)c3n2)C1 (single isomer, unassigned) [Compound 64a, 4-((S or R)-4-((1R,5S)-3,8-diazabicyclo[3.2.1]octan-3-yl)-6-chloro-2-(3-(dimethylamino)azetidin-1-yl)-8-fluoroquinazolin-7-yl)-5-fluoronaphthalen-2-ol]",31.7
8,"CN(C)C1CN(c2nc(N3CC4CCC(C3)N4)c3cc(Cl)c(-c4cc(O)cc5cccc(Cl)c45)c(F)c3n2)C1 (single isomer, unassigned) [Compound 65a, 4-((S or R)-4-((1R,5S)-3,8-diazabicyclo[3.2.1]octan-3-yl)-6-chloro-2-(3-(dimethylamino)azetidin-1-yl)-8-fluoroquinazolin-7-yl)-5-chloronaphthalen-2-ol]",44.6
9,"Oc1cc(-c2c(Cl)cc3c(N4CC5CCC(C4)N5)nc(OCCCN4CCCCC4)nc3c2F)c2ccccc2c1 (single isomer, unassigned) [Compound 66b, 4-((R or S)-4-((1R,5S)-3,8-diazabicyclo[3.2.1]octan-3-yl)-6-chloro-8-fluoro-2-(3-(piperidin-1-yl)propoxy)quinazolin-7-yl)naphthalen-2-ol]",18
10,"CN(C)C1CN(c2nc(N=S3(=O)CCC(N)CC3)c3cc(Cl)c(-c4cc(O)cc5ccccc45)c(F)c3n2)C1 (single isomer, unassigned) [Compound 72a, (4R or S)-4-amino-1-(((R or S)-6-chloro-2-(3-(dimethylamino)azetidin-1-yl)-8-fluoro-7-(3-hydroxynaphthalen-1-yl)quinazolin-4-yl)imino)hexahydro-1-thiopyran 1-oxide]",> 200
11,"CN(C)C1CN(c2nc(N=S3(=O)CCC(N)CC3)c3cc(Cl)c(-c4cc(O)cc5ccccc45)c(F)c3n2)C1 (single isomer, unassigned) [Compound 72b, (4R or S)-4-amino-1-(((S or R)-6-chloro-2-(3-(dimethylamino)azetidin-1-yl)-8-fluoro-7-(3-hydroxynaphthalen-1-yl)quinazolin-4-yl)imino)hexahydro-1-thiopyran 1-oxide]",155
12,"CN(C)C1CN(c2nc(N=S3(=O)CCC(N)CC3)c3cc(Cl)c(-c4cc(O)cc5ccccc45)c(F)c3n2)C1 (single isomer, unassigned) [Compound 72c, (4S or R)-4-amino-1-(((R or S)-6-chloro-2-(3-(dimethylamino)azetidin-1-yl)-8-fluoro-7-(3-hydroxynaphthalen-1-yl)quinazolin-4-yl)imino)hexahydro-1-thiopyran 1-oxide]",> 200
13,"CN(C)C1CN(c2nc(N=S3(=O)CCC(N)CC3)c3cc(Cl)c(-c4cc(O)cc5ccccc45)c(F)c3n2)C1 (single isomer, unassigned) [Compound 72d, (4S or R)-4-amino-1-(((S or R)-6-chloro-2-(3-(dimethylamino)azetidin-1-yl)-8-fluoro-7-(3-hydroxynaphthalen-1-yl)quinazolin-4-yl)imino)hexahydro-1-thiopyran 1-oxide]",176

# Stronger by IC50, values ahead:
row,IC50 [µM],Structure (SMILES)
1,15.7,"CN1CCCC[C@H]1COc1nc(N2CC3CCC(C2)N3)c2cc(Cl)c(-c3cc(O)cc4ccccc34)c(F)c2n1 (single isomer, unassigned) [Compound 56b, 4-((R or S)-4-((1R,5S)-3,8-diazabicyclo[3.2.1]octan-3-yl)-6-chloro-8-fluoro-2-((S)-1-methylpiperidin-2-yl)methoxy)quinazolin-7-yl)naphthalen-2-ol dihydrochloride]"
2,15.1,"Oc1cc(-c2c(Cl)cc3c(N4CC5CCC(C4)N5)nc(OCC45CCCN4CCC5)nc3c2F)c2ccccc2c1 (single isomer, unassigned) [Compound 58b, 4-((R or S)-4-((1R,5S)-3,8-diazabicyclo[3.2.1]octan-3-yl)-6-chloro-8-fluoro-2-((tetrahydro-1H-pyrrolin-7a(5H)-yl)methoxy)quinazolin-7-yl)naphthalen-2-ol]"
3,13.8,"CCN(C)CCCOc1nc(N2CC3CCC(C2)N3)c2cc(Cl)c(-c3cc(O)cc4ccccc34)c(F)c2n1 (single isomer, unassigned) [Compound 49b, 4-((R or S)-4-((1R,5S)-3,8-diazabicyclo[3.2.1]octan-3-yl)-6-chloro-2-(3-(ethyl(methyl)amino)propoxy)-8-fluoroquinazolin-7-yl)naphthalen-2-ol dicarboxylate]"
4,12.9,"Oc1cc(-c2c(Cl)cc3c(N4CC5CCC(C4)N5)nc(OCCCN4CCCC4)nc3c2F)c2ccccc2c1 (single isomer, unassigned) [Compound 63b, 4-((R or S)-4-((1R,5S)-3,8-diazabicyclo[3.2.1]octan-3-yl)-6-chloro-8-fluoro-2-(3-(pyrrolidin-1-yl)propoxy)quinazolin-7-yl)naphthalen-2-ol]"
5,6.47,"CN(C)C1CN(c2nc(N3CC4CCC(C3)N4)c3cc(Cl)c(-c4cccc5ccccc45)c(F)c3n2)C1 (single isomer, unassigned) [Compound 42b, -((R or S)-4-((1R,5S)-3,8-diazabicyclo[3.2.1]octan-3-yl)-6-chloro-8-fluoro-7-(naphthalen-1-yl)quinazolin-2-yl)-N,N-dimethylazetidin-3-amine]"
6,5.98,"Oc1cc(-c2c(Cl)cc3c(N4CC5CCC(C4)N5)nc(OCCCN4CCC4)nc3c2F)c2ccccc2c1 (single isomer, unassigned) [Compound 59b, 4-((R or S)-2-(3-(azetidin-1-yl)propoxy)-4-((1R,5S)-3,8-diazabicyclo[3.2.1]octan-3-yl)-6-chloro-8-fluoroquinazolin-7-yl)naphthalen-2-ol]"
7,4.8,"CN(C)CCCOc1nc(N2CC3CCC(C2)N3)c2cc(Cl)c(-c3cc(O)cc4ccccc34)c(F)c2n1 (single isomer, unassigned) [Compound 40b, (R or S)-4-(4-((1R,5,S)-3,8-diazabicyclo[3.2.1]octan-3-yl)-6-chloro-2-(3-(dimethylamino)propoxy)-8-fluoroquinazolin-7-yl)naphthalen-2-ol]"
8,2.57,"CN(C)C1CN(c2nc(N3CC4CCC(C3)N4)c3cc(Cl)c(-c4c(O)cccc4F)c(F)c3n2)C1 (single isomer, unassigned) [Compound 43b, 2-((R or S)-4-((1R,5S)-3,8-diazabicyclo[3.2.1]octan-3-yl)-6-chloro-2-(3-(dimethylamino)azetidin-1-yl)-8-fluoroquinazolin-7-yl)-3-fluorophenol]"
9,2.29,"CCN(CC)CCCOc1nc(N2CC3CCC(C2)N3)c2cc(Cl)c(-c3cc(O)cc4ccccc34)c(F)c2n1 (single isomer, unassigned) [Compound 53b, 4-((R or S)-4-((1R,5,S)-3,8-diazabicyclo[3.2.1]octan-3-yl)-6-chloro-2-(3-(diethylamino)propoxy)-8-fluoroquinazolin-7-yl)naphthalen-2-ol]"
10,1.26,"CN(C)C1CN(c2nc(N3CC4CCC(C3)N4)c3cc(Cl)c(-c4cc(O)cc5cccnc45)c(F)c3n2)C1 (single isomer, unassigned) [Compound 45a, 8-((S or R)-4-((1R,5S)-3,8-diazabicyclo[3.2.1]octan-3-yl)-6-chloro-2-(3-(dimethylamino)azetidin-1-yl)-8-fluoroquinazolin-7-yl)quinolin-6-o1]"
